Assays:
Saccharomyces cerevisiae [1] = experiment: Increase of FMP38 gene expression in wild-type Saccharomyces cerevisiae transformed with overexpression plasmids by microarray; format: functional
[2] = Inhibition of TOR signaling in wild-type Saccharomyces cerevisiae transformed with overexpression plasmids assessed as decreased SET4 gene expression by microarray
[3] = Inhibition of TOR signaling in wild-type Saccharomyces cerevisiae transformed with overexpression plasmids assessed as decreased PTC4 gene expression by microarray
[4] = Inhibition of TOR signaling in wild-type Saccharomyces cerevisiae transformed with overexpression plasmids assessed as decreased PEX7 gene expression by microarray
[5] = Inhibition of TOR signaling in wild-type Saccharomyces cerevisiae transformed with overexpression plasmids assessed as increased YLR297W gene expression by microarray
[6] = Inhibition of TOR signaling in wild-type Saccharomyces cerevisiae transformed with overexpression plasmids assessed as increased LIN1 gene expression by microarray
[7] = Inhibition of TOR signaling in wild-type Saccharomyces cerevisiae transformed with overexpression plasmids assessed as increased ALD6 gene expression by microarray
[8] = Inhibition of TOR signaling in wild-type Saccharomyces cerevisiae transformed with overexpression plasmids assessed as decreased HPA2 gene expression by microarray
[9] = Inhibition of TOR signaling in wild-type Saccharomyces cerevisiae transformed with overexpression plasmids assessed as increased SSH1 gene expression by microarray
[10] = Inhibition of TOR signaling in wild-type Saccharomyces cerevisiae transformed with overexpression plasmids assessed as decreased HOL1 gene expression by microarray
[11] = Inhibition of TOR signaling in wild-type Saccharomyces cerevisiae transformed with overexpression plasmids assessed as decreased SUT2 gene expression by microarray
[12] = Inhibition of TOR signaling in wild-type Saccharomyces cerevisiae transformed with overexpression plasmids assessed as decreased MSB3 gene expression by microarray
[13] = Inhibition of TOR signaling in wild-type Saccharomyces cerevisiae transformed with overexpression plasmids assessed as increased SAS10 gene expression by microarray
[14] = Inhibition of TOR signaling in wild-type Saccharomyces cerevisiae transformed with overexpression plasmids assessed as increased WRS1 gene expression by microarray
[15] = Inhibition of TOR signaling in wild-type Saccharomyces cerevisiae transformed with overexpression plasmids assessed as increased HSP104 gene expression by microarray
[16] = Inhibition of TOR signaling in wild-type Saccharomyces cerevisiae transformed with overexpression plasmids assessed as increased YEL070W gene expression by microarray
[17] = Inhibition of TOR signaling in wild-type Saccharomyces cerevisiae transformed with overexpression plasmids assessed as decreased YCR007C gene expression by microarray
[18] = Inhibition of TOR signaling in wild-type Saccharomyces cerevisiae transformed with overexpression plasmids assessed as increased PZF1 gene expression by microarray
[19] = Inhibition of TOR signaling in wild-type Saccharomyces cerevisiae transformed with overexpression plasmids assessed as increased SEC14 gene expression by microarray
[20] = Inhibition of TOR signaling in wild-type Saccharomyces cerevisiae transformed with overexpression plasmids assessed as increased YPR153W gene expression by microarray
[21] = Inhibition of TOR signaling in wild-type Saccharomyces cerevisiae transformed with overexpression plasmids assessed as increased CDC5 gene expression by microarray
[22] = Inhibition of TOR signaling in wild-type Saccharomyces cerevisiae transformed with overexpression plasmids assessed as decreased NRG1 gene expression by microarray
[23] = Inhibition of TOR signaling in wild-type Saccharomyces cerevisiae transformed with overexpression plasmids assessed as decreased YFL054C gene expression by microarray
[24] = Inhibition of TOR signaling in wild-type Saccharomyces cerevisiae transformed with overexpression plasmids assessed as increased NOP7 gene expression by microarray
[25] = Inhibition of TOR signaling in wild-type Saccharomyces cerevisiae transformed with overexpression plasmids assessed as decreased YMR034C gene expression by microarray
[26] = Inhibition of TOR signaling in wild-type Saccharomyces cerevisiae transformed with overexpression plasmids assessed as decreased CDC16 gene expression by microarray
Saccharomyces cerevisiae [27] = experiment: Decrease of YDR222W gene expression in wild-type Saccharomyces cerevisiae transformed with overexpression plasmids by microarray; format: functional
[28] = Inhibition of TOR signaling in wild-type Saccharomyces cerevisiae transformed with overexpression plasmids assessed as decreased VTI1 gene expression by microarray
[29] = Inhibition of TOR signaling in wild-type Saccharomyces cerevisiae transformed with overexpression plasmids assessed as increased NOG1 gene expression by microarray
[30] = Inhibition of TOR signaling in wild-type Saccharomyces cerevisiae transformed with overexpression plasmids assessed as increased CIT1 gene expression by microarray
[31] = Inhibition of TOR signaling in wild-type Saccharomyces cerevisiae transformed with overexpression plasmids assessed as increased UTP8 gene expression by microarray
[32] = Inhibition of TOR signaling in wild-type Saccharomyces cerevisiae transformed with overexpression plasmids assessed as increased STM1 gene expression by microarray
[33] = Inhibition of TOR signaling in wild-type Saccharomyces cerevisiae transformed with overexpression plasmids assessed as decreased YPL260W gene expression by microarray
[34] = Inhibition of TOR signaling in wild-type Saccharomyces cerevisiae transformed with overexpression plasmids assessed as decreased ELP2 gene expression by microarray
[35] = Inhibition of TOR signaling in wild-type Saccharomyces cerevisiae transformed with overexpression plasmids assessed as decreased HES1 gene expression by microarray
[36] = Inhibition of TOR signaling in wild-type Saccharomyces cerevisiae transformed with overexpression plasmids assessed as increased CDC54 gene expression by microarray
[37] = Inhibition of TOR signaling in wild-type Saccharomyces cerevisiae transformed with overexpression plasmids assessed as increased GPM3 gene expression by microarray
[38] = Inhibition of TOR signaling in wild-type Saccharomyces cerevisiae transformed with overexpression plasmids assessed as increased IML2 gene expression by microarray
[39] = Inhibition of TOR signaling in wild-type Saccharomyces cerevisiae transformed with overexpression plasmids assessed as increased WHI4 gene expression by microarray
[40] = Inhibition of TOR signaling in wild-type Saccharomyces cerevisiae transformed with overexpression plasmids assessed as decreased PRM6 gene expression by microarray
[41] = Inhibition of TOR signaling in wild-type Saccharomyces cerevisiae transformed with overexpression plasmids assessed as decreased YCL036W gene expression by microarray
[42] = Inhibition of TOR signaling in wild-type Saccharomyces cerevisiae transformed with overexpression plasmids assessed as decreased BUD8 gene expression by microarray
[43] = Inhibition of TOR signaling in wild-type Saccharomyces cerevisiae transformed with overexpression plasmids assessed as increased SSE1 gene expression by microarray
[44] = Inhibition of TOR signaling in wild-type Saccharomyces cerevisiae transformed with overexpression plasmids assessed as increased VID22 gene expression by microarray
Saccharomyces cerevisiae [45] = experiment: Decrease of YJL051W gene expression in wild-type Saccharomyces cerevisiae transformed with overexpression plasmids by microarray; format: functional

fold change (FC) [2]: -2.2
fold change (FC) [3]: -4
fold change (FC) [4]: -2.8
fold change (FC) [5]: 3.6
fold change (FC) [6]: 2.5
fold change (FC) [7]: 3
fold change (FC) [8]: -2.1
fold change (FC) [9]: 2.3
fold change (FC) [10]: -4.5
fold change (FC) [11]: -3.8
fold change (FC) [12]: -2
fold change (FC) [13]: 2.3
fold change (FC) [14]: 2.8
fold change (FC) [15]: 6.3
fold change (FC) [16]: 3
fold change (FC) [17]: -2.2
fold change (FC) [18]: 2.1
fold change (FC) [19]: 4.1
fold change (FC) [20]: 2.1
fold change (FC) [21]: 3.4
fold change (FC) [22]: -2.3
fold change (FC) [23]: -2.5
fold change (FC) [24]: 2.4
fold change (FC) [25]: -4.4
fold change (FC) [26]: -2.3
fold change (FC) [28]: -2.8
fold change (FC) [29]: 2.9
fold change (FC) [30]: 2.1
fold change (FC) [31]: 2.6
fold change (FC) [32]: 5.7
fold change (FC) [33]: -2
fold change (FC) [34]: -8.1
fold change (FC) [35]: -3.1
fold change (FC) [36]: 4.5
fold change (FC) [37]: 2.5
fold change (FC) [38]: 24.4
fold change (FC) [39]: 3.4
fold change (FC) [40]: -4.4
fold change (FC) [41]: -2.1
fold change (FC) [42]: -6.4
fold change (FC) [43]: 11.4
fold change (FC) [44]: 2.3
Structure (SMILES): CO[C@H]1C[C@@H]2CC[C@@H](C)[C@@](O)(O2)C(=O)C(=O)N2CCCC[C@H]2C(=O)O[C@H]([C@H](C)C[C@@H]2CC[C@@H](O)[C@H](OC)C2)CC(=O)[C@H](C)/C=C(\C)[C@@H](O)[C@@H](OC)C(=O)[C@H](C)C[C@H](C)/C=C/C=C/C=C/1C [SIROLIMUS]
fold change (FC) (Saccharomyces cerevisiae [1]): -3.2
fold change (FC) (Saccharomyces cerevisiae [27]): 5
fold change (FC) (Saccharomyces cerevisiae [45]): -2.5

— ChEMBL document CHEMBL1250443, “Microarray-based method for monitoring yeast overexpression strains reveals small-molecule targets in TOR pathway” (Nat Chem Biol, 2006)
